Assay results from US8466162B2, “5-alkynyl-pyridines” (Boehringer Ingelheim International GmbH, priority 2011, dated 2013).

Assays:
PI3Kalpha = target: T1, PI3Kalpha (Homo sapiens, UniProt P42336); experiment: Inhibition of PI3Kalpha-induced PIP-2 phosphorylation (filter-binding assay, 33P-ATP); type: biochemical; details: PI3 Kinase alpha (p85alpha/His-p110alpha), 1 μM ATP; read-out: IC50 PI3Kα
T1 construct: His (N); made in house; host or cells: SF9 insect cells (baculovirus co-infection)

H460 cells = experiment: alamarBlue H460 cell assay (antiproliferative/cytotoxicity); type: cell-based; details: NCI-H460; H460 human lung carcinoma cells
Outline: (§1)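 Read-out: alamarBlue reduction by metabolically active cells, fluorescence ex 530-560 nm/em 590 nm, measured 8 h after dye addition at 37° C. Cells had been exposed to compound for 5-6 days over a 10-point 1:3 series starting at 10 μM final. EC50 derived after medium-blank subtraction.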

MB453 cells = experiment: alamarBlue MB453 cell assay (antiproliferative/cytotoxicity); type: cell-based; details: Homo sapiens; MDA MB 453 breast cancer cell line
Outline: as §1

U87 cells = experiment: alamarBlue U87 cell assay (antiproliferative/cytotoxicity); type: cell-based; details: U-87MG human glioblastoma cells
Outline: as §1

MCF7 cells = experiment: alamarBlue MCF7 cell assay (antiproliferative/cytotoxicity); type: cell-based; details: MCF7 human breast cancer cell line
Outline: as §1

BT474 cells = experiment: alamarBlue BT474 cell assay (antiproliferative/cytotoxicity); type: cell-based; details: BT-474 human breast cancer cell line, 5-6 days incubation
Outline: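 After overnight plating of 3000 cells per well, compounds are applied as ten threefold dilutions (highest final 10 μM) in duplicate for 5-6 days. Viability is then gauged by an 8 h alamarBlue incubation and fluorescence readout, with EC50 calculated from medium-blank-corrected signals.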

T1 sequence (P27986 whole entry): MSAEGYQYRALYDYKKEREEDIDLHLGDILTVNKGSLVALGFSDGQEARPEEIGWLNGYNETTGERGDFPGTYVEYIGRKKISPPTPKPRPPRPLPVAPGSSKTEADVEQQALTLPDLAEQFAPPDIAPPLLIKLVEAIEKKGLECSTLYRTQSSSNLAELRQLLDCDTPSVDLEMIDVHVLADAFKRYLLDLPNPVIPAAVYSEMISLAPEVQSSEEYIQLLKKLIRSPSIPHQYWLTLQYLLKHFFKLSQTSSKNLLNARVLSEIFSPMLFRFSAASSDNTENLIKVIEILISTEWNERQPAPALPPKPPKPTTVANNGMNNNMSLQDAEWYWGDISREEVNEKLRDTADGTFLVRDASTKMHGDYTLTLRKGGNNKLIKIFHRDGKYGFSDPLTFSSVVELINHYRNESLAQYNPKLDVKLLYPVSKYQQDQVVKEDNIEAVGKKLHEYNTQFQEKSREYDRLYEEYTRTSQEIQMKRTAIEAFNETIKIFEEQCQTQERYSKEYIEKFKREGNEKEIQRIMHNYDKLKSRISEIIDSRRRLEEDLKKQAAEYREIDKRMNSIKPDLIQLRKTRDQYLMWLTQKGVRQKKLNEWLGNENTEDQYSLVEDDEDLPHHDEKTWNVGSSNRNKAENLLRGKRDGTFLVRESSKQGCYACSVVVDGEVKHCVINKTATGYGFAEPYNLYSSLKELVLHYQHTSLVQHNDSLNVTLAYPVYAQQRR
T1 sequence (P42336 whole entry): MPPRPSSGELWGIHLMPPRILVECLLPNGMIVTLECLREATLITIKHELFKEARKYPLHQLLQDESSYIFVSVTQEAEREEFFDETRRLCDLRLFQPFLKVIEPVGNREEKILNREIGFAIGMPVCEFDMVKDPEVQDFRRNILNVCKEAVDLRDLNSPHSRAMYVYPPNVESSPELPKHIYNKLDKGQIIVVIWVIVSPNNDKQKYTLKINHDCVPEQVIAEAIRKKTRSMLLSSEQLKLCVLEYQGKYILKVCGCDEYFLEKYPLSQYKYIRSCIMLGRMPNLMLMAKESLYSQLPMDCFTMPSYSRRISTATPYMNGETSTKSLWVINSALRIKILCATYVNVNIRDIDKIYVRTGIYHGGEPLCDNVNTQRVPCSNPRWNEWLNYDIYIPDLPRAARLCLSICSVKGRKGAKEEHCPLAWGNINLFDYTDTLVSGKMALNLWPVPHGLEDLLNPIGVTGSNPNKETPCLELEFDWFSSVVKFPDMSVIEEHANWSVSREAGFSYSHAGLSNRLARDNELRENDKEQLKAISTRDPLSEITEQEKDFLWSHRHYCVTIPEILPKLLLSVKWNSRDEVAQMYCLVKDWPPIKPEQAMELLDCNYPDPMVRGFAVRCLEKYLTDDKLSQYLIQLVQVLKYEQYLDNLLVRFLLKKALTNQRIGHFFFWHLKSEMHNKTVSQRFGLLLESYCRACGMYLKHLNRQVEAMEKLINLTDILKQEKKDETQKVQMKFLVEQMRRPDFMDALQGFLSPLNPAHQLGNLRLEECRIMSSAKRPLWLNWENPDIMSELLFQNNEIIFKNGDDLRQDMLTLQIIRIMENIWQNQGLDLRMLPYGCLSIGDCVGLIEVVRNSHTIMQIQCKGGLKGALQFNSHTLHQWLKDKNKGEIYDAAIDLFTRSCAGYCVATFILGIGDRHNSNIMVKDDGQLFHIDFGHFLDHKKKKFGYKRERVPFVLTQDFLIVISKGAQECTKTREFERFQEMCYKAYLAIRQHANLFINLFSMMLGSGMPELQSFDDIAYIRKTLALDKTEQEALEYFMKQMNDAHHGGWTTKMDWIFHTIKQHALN

CCc1ncnc(-c2ccnc(C(C)(C)C)c2)c1C#Cc1cnc(C)c(NS(C)(=O)=O)c1 [Example 75, N-{5-[4-(2-tert-Butyl-pyridin-4-yl)-6-ethyl-pyrimidin-5-ylethynyl]-2-methyl-pyridin-3-yl}-methanesulfonamide]
IC50 (PI3Kalpha): 1 nM
EC50 (H460 cells): 200 nM
EC50 (MB453 cells): 143 nM
EC50 (U87 cells): 449 nM
EC50 (MCF7 cells): 79 nM
EC50 (BT474 cells): 169 nM

Cc1ncc(C#Cc2c(C)ncnc2-c2ccccc2)cc1NS(C)(=O)=O [Example 42, N-[2-Methyl-5-(4-methyl-6-phenyl-pyrimidin-5-ylethynyl)-pyridin-3-yl]-methanesulfonamide]
IC50 (PI3Kalpha): 4 nM
EC50 (H460 cells): 2260 nM
EC50 (MB453 cells): 1330 nM
EC50 (U87 cells): 1810 nM
EC50 (MCF7 cells): 239 nM
EC50 (BT474 cells): 1130 nM

Cc1cc(-c2ncnc(C)c2C#Cc2cnc(C)c(NS(C)(=O)=O)c2)ccn1 [Example 38, N-{2-Methyl-5-[4-methyl-6-(2-methyl-pyridin-4-yl)-pyrimidin-5-ylethynyl]-pyridin-3-yl}-methanesulfonamide]
IC50 (PI3Kalpha): 2 nM
EC50 (H460 cells): 2600 nM
EC50 (MB453 cells): 317 nM
EC50 (U87 cells): 893 nM
EC50 (MCF7 cells): 186 nM
EC50 (BT474 cells): 344 nM

CCc1ncnc(-c2ccnc(C)c2)c1C#Cc1cnc(C)c(NS(=O)(=O)c2ccccc2)c1 [Example 83, N-{5-[4-Ethyl-6-(2-methyl-pyridin-4-yl)-pyrimidin-5-ylethynyl]-2-methyl-pyridin-3-yl}-benzenesulfonamide]
IC50 (PI3Kalpha): 0.65 nM
EC50 (H460 cells): 57 nM
EC50 (MB453 cells): 86 nM
EC50 (U87 cells): 227 nM
EC50 (MCF7 cells): 29 nM
EC50 (BT474 cells): 103 nM

CCc1ncnc(-c2ccc(CNC(=O)OC(C)(C)C)nc2)c1C#Cc1cnc(C)c(NS(=O)(=O)c2ccccc2)c1 [Example 50, {5-[5-(5-Benzene-sulfonylamino-6-methyl-pyridin-3-ylethynyl)-6-ethyl-pyrimidin-4-yl]-pyridin-2-ylmethyl}-carbamic acid tert-butyl ester]
IC50 (PI3Kalpha): 0.43 nM
EC50 (H460 cells): 104 nM
EC50 (MB453 cells): 115 nM
EC50 (U87 cells): 104 nM
EC50 (MCF7 cells): 27 nM
EC50 (BT474 cells): 102 nM

Cc1ccc(-c2ncnc(C)c2C#Cc2cnc(C)c(NS(C)(=O)=O)c2)cn1 [Example 40, N-{2-Methyl-5-[4-methyl-6-(6-methyl-pyridin-3-yl)-pyrimidin-5-ylethynyl]-pyridin-3-yl}-methanesulfonamide]
IC50 (PI3Kalpha): 3 nM
EC50 (H460 cells): 1960 nM
EC50 (MB453 cells): 411 nM
EC50 (U87 cells): 1170 nM
EC50 (MCF7 cells): 188 nM
EC50 (BT474 cells): 597 nM

CCc1ncnc(-c2ccnc(C)c2)c1C#Cc1cnc(C)c(NS(=O)(=O)c2ccccc2C)c1 [Example 89, N-{5-[4-Ethyl-6-(2-methyl-pyridin-4-yl)-pyrimidin-5-ylethynyl]-2-methyl-pyridin-3-yl}-2-methyl-benzenesulfonamide]
IC50 (PI3Kalpha): 0.88 nM
EC50 (H460 cells): 319 nM
EC50 (MB453 cells): 524 nM
EC50 (U87 cells): 827 nM
EC50 (MCF7 cells): 50 nM
EC50 (BT474 cells): 198 nM

CCc1ncnc(-c2ccnc(C)c2)c1C#Cc1cnc(C)c(NS(=O)(=O)c2ccc(Cl)cc2)c1 [Example 85, 4-Chloro-N-{5-[4-ethyl-6-(2-methyl-pyridin-4-yl)-pyrimidin-5-ylethynyl]-2-methyl-pyridin-3-yl}-benzenesulfonamide]
IC50 (PI3Kalpha): 1 nM
EC50 (H460 cells): 352 nM
EC50 (MB453 cells): 499 nM
EC50 (U87 cells): 980 nM
EC50 (MCF7 cells): 88 nM
EC50 (BT474 cells): 302 nM

COc1ncc(C#Cc2c(C)ncnc2-c2ccc(C)nc2)cc1NS(=O)(=O)c1ccc(F)cc1F [Example 47, 2,4-Difluoro-N-{2-methoxy-5-[4-methyl-6-(6-methyl-pyridin-3-yl)-pyrimidin-5-ylethynyl]-pyridin-3-yl}-benzenesulfonamide]
IC50 (PI3Kalpha): 0.74 nM
EC50 (H460 cells): 7 nM
EC50 (MB453 cells): 29 nM
EC50 (U87 cells): 70 nM
EC50 (MCF7 cells): 18 nM
EC50 (BT474 cells): 43 nM

CCc1ncnc(-c2ccc(OC)cc2F)c1C#Cc1cnc(C)c(NS(C)(=O)=O)c1 [Example 71, N-{5-[4-Ethyl-6-(2-fluoro-4-methoxy-phenyl)-pyrimidin-5-ylethynyl]-2-methyl-pyridin-3-yl}-methanesulfonamide]
IC50 (PI3Kalpha): 9 nM
EC50 (H460 cells): 683 nM
EC50 (MB453 cells): 558 nM
EC50 (U87 cells): 1300 nM
EC50 (MCF7 cells): 389 nM
EC50 (BT474 cells): 1020 nM

CCc1ncnc(-c2ccccc2OC)c1C#Cc1cnc(C)c(NS(C)(=O)=O)c1 [Example 62, N-{5-[4-Ethyl-6-(2-methoxy-phenyl)-pyrimidin-5-ylethynyl]-2-methyl-pyridin-3-yl}-methanesulfonamide]
IC50 (PI3Kalpha): 12 nM
EC50 (H460 cells): 2760 nM
EC50 (MB453 cells): 2900 nM
EC50 (U87 cells): 25000 nM
EC50 (MCF7 cells): 1420 nM
EC50 (BT474 cells): ≥ 10000 nM

CCc1nc(N)nc(-c2ccc(C)nc2)c1C#Cc1cnc(C)c(NS(=O)(=O)c2ccc(F)cc2F)c1 [Example 36, N-{5-[2-Amino-4-ethyl-6-(6-methyl-pyridin-3-yl)-pyrimidin-5-ylethynyl]-2-methyl-pyridin-3-yl}-2,4-difluoro-benzenesulfonamide]
IC50 (PI3Kalpha): 0.56 nM
EC50 (H460 cells): 30 nM
EC50 (MB453 cells): 37 nM
EC50 (U87 cells): 127 nM
EC50 (MCF7 cells): 10 nM
EC50 (BT474 cells): 41 nM

CCc1ncnc(-c2ccc(C(=O)N(C)C)cc2F)c1C#Cc1cnc(C)c(NS(C)(=O)=O)c1 [Example 72, 4-[6-Ethyl-5-(5-methanesulfonylamino-6-methyl-pyridin-3-ylethynyl)-pyrimidin-4-yl]-3-fluoro-N,N-dimethyl-benzamide]
IC50 (PI3Kalpha): 8 nM
EC50 (H460 cells): 3030 nM
EC50 (MB453 cells): 746 nM
EC50 (U87 cells): 1580 nM
EC50 (MCF7 cells): 679 nM
EC50 (BT474 cells): 1950 nM

CCc1ncnc(-c2cccc(C(F)(F)F)c2F)c1C#Cc1cnc(C)c(NS(C)(=O)=O)c1 [Example 70, N-{5-[4-Ethyl-6-(2-fluoro-3-trifluoromethyl-phenyl)-pyrimidin-5-ylethynyl]-2-methyl-pyridin-3-yl}-methanesulfonamide]
IC50 (PI3Kalpha): 20 nM
EC50 (H460 cells): 1180 nM
EC50 (MB453 cells): 1270 nM
EC50 (U87 cells): 2350 nM
EC50 (MCF7 cells): 374 nM
EC50 (BT474 cells): 1570 nM

Cc1cc(C)cc(-c2ncnc(C)c2C#Cc2cnc(C)c(NS(C)(=O)=O)c2)c1 [Example 43, N-{5-[4-(3,5-Dimethyl-phenyl)-6-methyl-pyrimidin-5-ylethynyl]-2-methyl-pyridin-3-yl}-elmethanesulfonamide]
IC50 (PI3Kalpha): 3 nM
EC50 (H460 cells): 337 nM
EC50 (MB453 cells): 639 nM
EC50 (U87 cells): 900 nM
EC50 (MCF7 cells): 270 nM
EC50 (BT474 cells): 897 nM

COc1ncc(C#Cc2c(C)ncnc2-c2ccc(C(=O)N3CCN(C)CC3)c(F)c2)cc1NS(=O)(=O)c1ccc(F)cc1F [Example 46, 2,4-Difluoro-N-(5-{4-[3-fluoro-4-(4-methyl-piperazine-1-carbonyl)-phenyl]-6-methyl-pyrimidin-5-ylethynyl}-2-methoxy-pyridin-3-yl)-benzenesulfonamide]
IC50 (PI3Kalpha): 0.67 nM
EC50 (H460 cells): 8 nM
EC50 (MB453 cells): 22 nM
EC50 (U87 cells): 38 nM
EC50 (MCF7 cells): 5 nM
EC50 (BT474 cells): 9 nM

CCc1ncnc(-c2ccnc(C)c2)c1C#Cc1cnc(C)c(NS(=O)(=O)c2ccc(C)cc2C)c1 [Example 92, N-{5-[4-Ethyl-6-(2-methyl-pyridin-4-yl)-pyrimidin-5-ylethynyl]-2-methyl-pyridin-3-yl}-2,4-dimethyl-benzenesulfonamide]
IC50 (PI3Kalpha): 7 nM
EC50 (H460 cells): 365 nM
EC50 (MB453 cells): 986 nM
EC50 (U87 cells): 983 nM
EC50 (MCF7 cells): 228 nM
EC50 (BT474 cells): 483 nM

CCc1ncnc(-c2ccnc(C)c2)c1C#Cc1cnc(C)c(NS(=O)(=O)c2ccc(CNC(C)=O)cc2)c1 [Example 94, N-(4-{5-[4-Ethyl-6-(2-methyl-pyridin-4-yl)-pyrimidin-5-ylethynyl]-2-methyl-pyridin-3-ylsulfamoyl}-benzyl)-acetamide]
IC50 (PI3Kalpha): 1 nM
EC50 (H460 cells): 2580 nM
EC50 (MB453 cells): 514 nM
EC50 (U87 cells): 2320 nM
EC50 (MCF7 cells): 580 nM
EC50 (BT474 cells): 644 nM

CCc1ncnc(-c2ccc(OC)c(OC)c2)c1C#Cc1cnc(C)c(NS(C)(=O)=O)c1 [Example 1, N-{5-[4-(3,4-Dimethoxy-phenyl)-6-ethyl-pyrimidin-5-ylethynyl]-2-methyl-pyridin-3-yl}-methanesulfonamide]
IC50 (PI3Kalpha): 1 nM
EC50 (H460 cells): 490 nM
EC50 (MB453 cells): 79 nM
EC50 (U87 cells): 300 nM
EC50 (MCF7 cells): 39 nM
EC50 (BT474 cells): 94 nM

CCc1ncnc(-c2ccnc(C)c2)c1C#Cc1cnc(C)c(NS(C)(=O)=O)c1 [Example 4, N-{5-[4-Ethyl-6-(2-methyl-pyridin-4-yl)-pyrimidin-5-ylethynyl]-2-methyl-pyridin-3-yl}-methanesulfonamide]
IC50 (PI3Kalpha): 2 nM
EC50 (H460 cells): 329 nM
EC50 (MB453 cells): 75 nM
EC50 (U87 cells): 383 nM
EC50 (MCF7 cells): 27 nM
EC50 (BT474 cells): 171 nM

CCc1ncnc(-c2ccnc(C)c2)c1C#Cc1cnc(C)c(NS(=O)(=O)c2ccc(C)cc2)c1 [Example 86, N-{5-[4-Ethyl-6-(2-methyl-pyridin-4-yl)-pyrimidin-5-ylethynyl]-2-methyl-pyridin-3-yl}-4-methyl-benzenesulfonamide]
IC50 (PI3Kalpha): 1 nM
EC50 (H460 cells): 208 nM
EC50 (MB453 cells): 492 nM
EC50 (U87 cells): 697 nM
EC50 (MCF7 cells): 56 nM
EC50 (BT474 cells): 302 nM

Cc1ncc(C#Cc2c(C)ncnc2-c2cccc(C#N)c2)cc1NS(C)(=O)=O [Example 39, N-{5-[4-(3-Cyano-phenyl)-6-methyl-pyrimidin-5-ylethynyl]-2-methyl-pyridin-3-yl}-methanesulfonamide]
IC50 (PI3Kalpha): 4 nM
EC50 (H460 cells): 1550 nM
EC50 (MB453 cells): 524 nM
EC50 (U87 cells): 955 nM
EC50 (MCF7 cells): 213 nM
EC50 (BT474 cells): 837 nM
